Test results as given in patent US20220089609A1, “SUBSTITUTED QUINAZOLINONE DERIVATIVES AND THEIR USE AS POSITIVE ALLOSTERIC MODULATORS OF MGLUR4” (DOMAIN THERAPEUTICS, priority 2018, published 2022).
Where “and” joins values, the source holds several entries; their conditions need not be identical. Identical values can stand only once. Counter-ions that a name gives are not always drawn.

Columns and labels:
human mGluR4 (hmGluR4) = target: T1, human mGluR4 (hmGluR4) (Homo sapiens, UniProt Q14833); assay: Calcium assay EC50 determination, positive allosteric modulator activity on hmGluR4 transiently over-expressed in HEK-293 cells; type: cell-based; settings: PAM mode with EC20 glutamate; hmGluR4 in HEK-293 cells; intracellular calcium (Fluo4AM); read-out: mGluR4 positive allosteric modulator activity, half maximal effective concentration (EC50)
T1 construct: expressed in transfected cells; host or cells: HEK-293 cells, transient co-transfection by electroporation
T1 sequence (Q14833 33-912): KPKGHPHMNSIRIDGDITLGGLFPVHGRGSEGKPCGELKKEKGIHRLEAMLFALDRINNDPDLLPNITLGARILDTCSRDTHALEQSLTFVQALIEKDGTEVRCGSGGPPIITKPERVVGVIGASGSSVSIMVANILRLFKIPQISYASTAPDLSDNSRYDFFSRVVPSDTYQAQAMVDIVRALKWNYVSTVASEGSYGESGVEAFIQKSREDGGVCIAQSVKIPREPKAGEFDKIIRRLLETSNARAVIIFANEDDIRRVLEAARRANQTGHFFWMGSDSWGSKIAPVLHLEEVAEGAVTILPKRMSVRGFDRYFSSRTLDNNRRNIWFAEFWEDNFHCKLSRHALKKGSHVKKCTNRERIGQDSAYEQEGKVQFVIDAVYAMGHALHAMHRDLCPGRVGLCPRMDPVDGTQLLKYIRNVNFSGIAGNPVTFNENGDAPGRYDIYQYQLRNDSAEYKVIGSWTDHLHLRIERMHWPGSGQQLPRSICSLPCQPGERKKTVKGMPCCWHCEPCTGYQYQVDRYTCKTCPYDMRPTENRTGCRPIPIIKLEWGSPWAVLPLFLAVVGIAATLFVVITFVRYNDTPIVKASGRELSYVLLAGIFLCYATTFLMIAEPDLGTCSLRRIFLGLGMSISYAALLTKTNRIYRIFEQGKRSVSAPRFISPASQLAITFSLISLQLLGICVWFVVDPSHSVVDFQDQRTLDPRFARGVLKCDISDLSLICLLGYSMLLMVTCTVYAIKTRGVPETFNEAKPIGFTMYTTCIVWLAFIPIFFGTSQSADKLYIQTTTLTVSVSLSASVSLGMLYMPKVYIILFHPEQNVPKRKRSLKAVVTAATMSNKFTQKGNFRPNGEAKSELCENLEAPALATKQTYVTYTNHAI
Procedure, shortened: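 HEK-293 cells transiently co-transfected with hmGluR4, chimeric G protein and glutamate transporters; Fluo4AM calcium read (ex 485/em 525 nm) on FLIPR Tetra. Compound alone 10 min for agonism, then EC20 glutamate with 3 min recording for PAM activity, versus buffer or EC20 glutamate basal.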

Row | SMILES | melting point [°C] | EC50 (human mGluR4 (hmGluR4))
1 | Cc1cc(O[C@H]2CCN(C(=O)OCc3ccccc3)C2)cc2c(=O)[nH]c(-c3cc4sccc4cn3)nc12 [Compound 141, Benzyl (3S)-3-[(8-methyl-4-oxo-2-thieno[3,2-c]pyridin-6-yl-3H-quinazolin-6-yl)oxy]pyrrolidine-1-carboxylate] | 224 to 227 | 100 to 1000 nM
2 | Cc1cc(CCN2C3CCC2COC3)cc2c(=O)[nH]c(-c3cc(C(F)(F)F)ccn3)nc12.Cl [Compound 163, 6-(2-(3-oxa-8-azabicyclo[3.2.1]octan-8-yl)ethyl)-8-methyl-2-(4-(trifluoromethyl)pyridin-2-yl)quinazolin-4(3H)-one hydrochloride] | 200 to 250 | ≤ 100 nM
3 | COCCOc1ccc2nc(-c3cc4cccn4cn3)[nH]c(=O)c2c1 [Compound 34, 6-(2-Methoxy-ethoxy)-2-pyrrolo[1,2-c]pyrimidin-3-yl-3H-quinazolin-4-one] | 181 to 187 | > 10000 nM
4 | CCC(=O)N1CC(Oc2cc(C)c3nc(-c4cc5ccsc5cn4)[nH]c(=O)c3c2)C1 [Compound 116, 8-methyl-6-(1-propanoylazetidin-3-yl)oxy-2-thieno[2,3-c]pyridin-5-yl-3H-quinazolin-4-one] | 230 to 240 | 100 to 1000 nM
5 | O=c1[nH]c(-c2cc3cccn3cn2)nc2ccc(OCCCc3ccncc3)cc12 [Compound 1, 6-(3-pyridin-4-yl-propoxy)-2-pyrrolo[1,2-c]pyrimidin-3-yl-3H-quinazolin-4-one] | 202 to 206 | 100 to 1000 nM
6 | COCCN(C)CCc1cc(C)c2nc(-c3cc4sccc4cn3)[nH]c(=O)c2c1.Cl [Compound 148, 6-(2-((2-Methoxyethyl)(methyl)amino)ethyl)-8-methyl-2-(thieno[3,2-c]pyridin-6-yl)quinazolin-4(3H)-one hydrochloride] | 149 to 162 | 1000 to 10000 nM
7 | Cl.O=c1[nH]c(-c2cc3ccccc3cn2)nc2ccc(OCCCc3ccncc3)cc12 [Compound 2, 2-Isoquinolin-3-yl-6-(3-pyridin-4-yl-propoxy)-3H-quinazolin-4-one hydrochloride] | > 250 | 1000 to 10000 nM
8 | O=c1[nH]c(-c2cc3ccsc3cn2)nc2ccc(OCCCc3cocn3)cc12 [Compound 64, 6-(3-Oxazol-4-yl-propoxy)-2-thieno[2,3-c]pyridin-5-yl-3H-quinazolin-4-one] | 197 to 199 | 100 to 1000 nM
9 | Cc1nc(-c2nc3ccc(OCCCc4ccncc4)cc3c(=O)[nH]2)co1 (as salt: hydrochloride) [Compound 22, 2-(2-Methyl-oxazol-4-yl)-6-(3-pyridin-4-yl-propoxy)-3H-quinazolin-4-one hydrochloride] | > 250 | 
10 | Cc1cc(CN2CCC(C(=O)N(C)C)CC2)cc2c(=O)[nH]c(-c3cc4sccc4cn3)nc12 (as salt: hydrochloride) [Compound 156, N,N-Dimethyl-14(8-methyl-4-oxo-2-(thieno[3,2-c]pyridin-6-yl)-3,4-dihydroquinazolin-6-yl)methyl)piperidine-4-carboxamide hydrochloride] | 215 to 230 | 
11 | Cc1cnc(-c2nc3ccc(OCCCc4ccncc4)cc3c(=O)[nH]2)cn1 (as salt: hydrochloride) [Compound 13, 2-(5-methylpyrazin-2-yl)-6-[3-(4-pyridyl)propoxy]-3H-quinazolin-4-one dihydrochloride] | > 250 | 
12 | Cc1cccc(-c2nc3ccc(OCCCc4ccncc4)cc3c(=O)[nH]2)n1 (as salt: hydrochloride) [Compound 12, 2-(6-methyl-2-pyridyl)-6-[3-(4-pyridyl)propoxy]-3H-quinazolin-4-one dihydrochloride] | > 250 | 
13 | Cl.O=c1[nH]c(-c2cc3ccsc3cn2)nc2ccc(OCCCc3ccncc3)cc12 [Compound 4] | > 250 | 
14 | O=c1[nH]c(-c2cc(Cl)ccn2)nc2ccc(OCCCc3ccncc3)cc12 (as salt: hydrochloride) [Compound 15, 2-(4-chloro-2-pyridyl)-6-[3-(4-pyridyl)propoxy]-3H-quinazolin-4-one hydrochloride] | 232 to 241 | 
15 | O=c1[nH]c(-c2cc(C3CC3)ccn2)nc2ccc(OCCCc3ccncc3)cc12 (as salt: hydrochloride) [Compound 19, 2-(4-cyclopropyl-2-pyridyl)-6-[3-(4-pyridyl)propoxy]-3H-quinazolin-4-one dihydrochioride] | 110 to 156 | 
16 | O=c1[nH]c(-c2cccc(C(F)(F)F)n2)nc2ccc(OCCCc3ccncc3)cc12 (as salt: hydrochloride) [Compound 17, 6-[3-(4-pyridyl)propoxy]-2-[6-(trifluoromethyl)-2-pyridyl]-3H-quinazolin-4-one hydrochloride] | 238 to 250 | 
17 | CCC(=O)N1CCC(Oc2ccc3nc(-c4cc5sccc5cn4)[nH]c(=O)c3c2)CC1 [Compound 32, 6-(1-Propionyl-piperidin-4-yloxy)-2-thieno[3,2-c]pyridin-6-yl-3H-quinazolin-4-one] |  | 100 to 1000 nM
18 | Cc1nc(-c2nc3ccc(OCCCc4ccncc4)cc3c(=O)[nH]2)co1 [Compound 22, 2-(2-Methyl-oxazol-4-yl)-6-(3-pyridin-4-yl-propoxy)-3H-quinazolin-4-one hydrochloride] |  | 1000 to 10000 nM

Continued, values first:

Row | melting point [°C] | EC50 (human mGluR4 (hmGluR4)) | SMILES
19 | 254 to 256 | ≤ 100 nM | Cc1cc(CC(=O)N2CCOCC2)cc2c(=O)[nH]c(-c3cc4cccn4cn3)nc12 [Compound 134, 8-Methyl-6-(2-morpholino-2-oxo-ethyl)-2-pyrrolo[1,2-c]pyrimidin-3-yl-3H-quinazolin-4-one]
20 | 239 to 245 | 100 to 1000 nM and < 1000 nM | Cl.O=c1[nH]c(-c2cc(C(F)(F)F)ccn2)nc2ccc(OCCCc3ccncc3)cc12 [Compound 9, 6-(3-Pyridin-4-yl-propoxy)-2-(4-trifluoromethyl-pyridin-2-yl)-3H-quinazolin-4-one hydrochloride]
21 | > 250 |  | Cc1cc(CN2CCN(C)CC2)cc2c(=O)[nH]c(-c3cc4ccsc4cn3)nc12 (as salt: hydrochloride) [Compound 132, 8-Methyl-6-[(4-methylpiperazin-1-yl)methyl]-2-thieno[2,3-c]pyridin-5-yl-3H-quinazolin-4-one dihydrochloride]
22 | 215 to 220 | ≤ 100 nM | Cc1cc(CC(=O)N2CCCOCC2)cc2c(=O)[nH]c(-c3cc4ccsc4cn3)nc12 [Compound 138, 8-Methyl-6-[2-(1,4-oxazepan-4-yl)-2-oxo-ethyl]-2-thieno[2,3-c]pyridin-5-yl-3H-quinazolin-4-one]
23 | > 250 |  | Cc1cc(CCN2CCOCC2)cc2c(=O)[nH]c(-c3cc4cccn4cn3)nc12 (as salt: hydrochloride) [Compound 124, 8-Methyl-6-(2-morpholin-4-yl-ethyl)-2-pyrrolo[1,2-c]pyrimidin-3-yl-3H-quinazolin-4-one hydrochloride]
24 | > 250 |  | O=c1[nH]c(-c2cc(C(F)(F)F)ccn2)nc2c(Cl)cc(CCN3CCOCC3)cc12 (as salt: hydrochloride) [Compound 154, 8-Chloro-6-(2-morpholinoethyl)-2-(4-(trifluoromethyl)pyridin-2-yl)quinazolin-4(3H)-one hydrochloride]
25 | 220 to 240 |  | Cc1cc(CN2CCOC(C)(C)C2)cc2c(=O)[nH]c(-c3cc4sccc4cn3)nc12 (as salt: hydrochloride) [Compound 153, 6-[(2,2-Dimethylmorpholin-4-yl)methyl]-8-methyl-2-thieno[3,2-c]pyridin-6-yl-3H-quinazolin-4-one hydrochloride]
26 | > 250 |  | Cc1cc(CN2CCOCC2)cc2c(=O)[nH]c(-c3cc(C(F)(F)F)ccn3)nc12 (as salt: hydrochloride) [Compound 115, 8-methyl-6-(morpholinomethyl)-2-[4-(trifluoromethyl)-2-pyridyl]-3H-quinazolin-4-one hydrochloride]
27 | 200 to 210 |  | COCC1CCN(Cc2cc(C)c3nc(-c4cc5sccc5cn4)[nH]c(=O)c3c2)CC1 (as salt: hydrochloride) [Compound 157, 6-((4-(Methoxymethyl)piperidin-1-yl)methyl)-8-methyl-2-(thieno[3,2-c]pyridin-6-yl)quinazolin-4(3H)-one hydrochloride]
28 | > 250 |  | Cc1cc(CCN2CCOCC2)cc2c(=O)[nH]c(-c3cc(C(F)(F)F)ccn3)nc12 (as salt: hydrochloride) [Compound 117, 8-methyl-6-(2-morpholinoethyl)-2-[4-(trifluoromethyl)-2-pyridyl]-3H-quinazolin-4-one hydrochloride]
29 | 205 to 215 |  | COC1CCN(Cc2cc(C)c3nc(-c4cc5sccc5cn4)[nH]c(=O)c3c2)CC1 (as salt: hydrochloride) [Compound 152, 6-[(4-Methoxy-1-piperidyl)methyl]-8-methyl-2-thieno[3,2-c]pyridin-6-yl-3H-quinazolin-4-one hydrochloride]
30 | 168 to 173 |  | Cc1cc(CCN2CCOCC2)nc2c(=O)[nH]c(-c3cc(C(F)(F)F)ccn3)nc12.Cl
31 |  | ≤ 100 nM | Cc1cc(O[C@H](C)C2CCOCC2)cc2c(=O)[nH]c(-c3cc4ccsc4cn3)nc12 [Compound 110-R, R-8-Methyl-6-[1-(tetrahydro-pyran-4-yl)-ethoxy]-2-thieno[2,3-c]pyridin-5-yl-3H-quinazolin-4-one]
32 |  | ≤ 100 nM | Cc1cc(CN2CCN(C)C(=O)C2)cc2c(=O)[nH]c(-c3cc4sccc4cn3)nc12 [Compound 147, 8-Methyl-6-[(4-methyl-3-oxo-piperazin-1-yl)methyl]-2-thieno[3,2-c]pyridin-6-yl-3H-quinazolin-4-one hydrochloride]
